According to US20260372306A1, “MICROBIOCIDAL HETEROBICYCLIC DIHYDROOXADIAZINE DERIVATIVES” (SYNGENTA CROP PROTECTION AG, priority 2022, published 2026):

Tests used:
Sclerotinia sclerotiorum = Sclerotinia sclerotiorum (Cottony Rot of Oilseed Rape), growth inhibition in nutrient broth; assay type: cell-based; details: PDB potato dextrose broth, 24 °C, photometric, 3-4 days after application, read-out: control of Sclerotinia sclerotiorum (inhibition of growth)
Procedure: (§1) Mycelia fragments or conidia suspensions of a fungus prepared either freshly from liquid cultures of the fungus or from cryogenic storage, are directly mixed into nutrient broth. DMSO solutions of the test compound (max. 10 mg/mL) are diluted with 0.025% Tween20 by a factor of 50 and 10 μL of this solution is pipetted into a microtiter plate (96-well format). The nutrient broth containing the fungal spores/mycelia fragments is then added to give an end concentration of the tested compound. The test plates are incubated in the dark at 24 °C and 96% relative humidity. The inhibition of fungal growth is determined photometrically after 2 to 7 days, depending on the pathosystem, and percent antifungal activity relative to the untreated check is calculated.
(§2) Mycelia fragments of a newly grown liquid culture of the fungus are directly mixed into nutrient broth (PDB potato dextrose broth). After placing a (DMSO) solution of test compound into a microtiter plate (96-well format) the nutrient broth containing the fungal material is added. The test plates are incubated at 24 °C and the inhibition of growth is determined photometrically 3-4 days after application.

Botryotinia fuckeliana = Botryotinia fuckeliana syn. Botrytis cinerea (Gray Mould of Grapevine), growth inhibition in nutrient broth; assay type: cell-based; details: Vogels broth, 24 °C, photometric, 3-4 days after application, read-out: control of Botryotinia fuckeliana (inhibition of growth)
Procedure: as §1
as §2, with “Conidia” for “Mycelia fragments of a newly grown liquid culture”, “fungus from cryogenic storage” for “fungus”, “(Vogels” for “(PDB potato dextrose”, “format),” for “format)”, “spores” for “material”

Alternaria solani = Alternaria solani (Early Blight of Tomato), tomato leaf disks, preventative; assay type: in vivo; details: 200 ppm; tomato leaf disks cv. Baby; inoculated 2 days after application; assessed 5-7 days after application
Procedure: (§3) Leaf disks or leaf segments of various plant species are cut from plants grown in a greenhouse. The cut leaf disks or segments are placed in multiwell plates (24-well format) onto water agar. The leaf disks are sprayed with a test solution before (preventative) or after (curative) inoculation. Compounds to be tested are prepared as DMSO solutions (max. 10 mg/mL) which are diluted to the appropriate concentration with 0.025% Tween20 just before spraying. The inoculated leaf disks or segments are incubated under defined conditions (temperature, relative humidity, light, etc.) according to the respective test system. A single evaluation of disease level is carried out 3 to 14 days after inoculation, depending on the pathosystem. Percent disease control relative to the untreated check leaf disks or segments is then calculated.
Tomato leaf disks cv. Baby are placed on agar in multiwell plates (24-well format) and sprayed with the formulated test compound diluted in water. […] The inoculated leaf disks are incubated at 23 °C/21 °C (day/night) and 80% rh under a light regime of 12/12 h (light/dark) in a climate cabinet and the activity of a compound is assessed as percent disease control compared to untreated when an appropriate level of disease damage appears on untreated check disk leaf disks (5-7 days after application).

Pyrenophora teres = Pyrenophora teres (Net Blotch of Barley), barley leaf segments, preventative; assay type: in vivo; details: 200 ppm; barley leaf segments cv. Hasso; inoculated 2 days after application; assessed 5-7 days after application
Procedure: as §3
Barley leaf segments cv. Hasso are placed on agar in a multiwell plate (24-well format) and sprayed with the formulated test compound diluted in water. […] The inoculated leaf segments are incubated at 20 °C and 65% rh under a light regime of 12 h light/12 h darkness in a climate cabinet and the activity of a compound is assessed as disease control compared to untreated when an appropriate level of disease damage appears in untreated check leaf segments (5-7 days after application).

Glomerella lagenarium = Glomerella lagenarium syn. Colletotrichum lagenarium (Anthracnose of Cucurbits), growth inhibition in nutrient broth; assay type: cell-based; details: Colletotrichum orbiculare, PDB potato dextrose broth, 24 °C, photometric, 3-4 days after application, read-out: control of Glomerella lagenarium (inhibition of growth)
Procedure: as §1
as §2, with “Conidia” for “Mycelia fragments of a newly grown liquid culture”, “fungus from cryogenic storage” for “fungus”, “format),” for “format)”, “spores” for “material”, “measured” for “determined”

Monographella nivalis = Monographella nivalis syn. Microdochium nivale, Fusarium nivale (Snow Mould, Foot Rot of Cereals), growth inhibition in nutrient broth; assay type: cell-based; details: PDB potato dextrose broth, 24 °C, photometric, 4-5 days after application, read-out: control of Monographella nivalis (inhibition of growth)
Procedure: as §1
as §2, with “Conidia” for “Mycelia fragments of a newly grown liquid culture”, “fungus from cryogenic storage” for “fungus”, “format),” for “format)”, “spores” for “material”, “4-5” for “3-4”

[1] = test system: Mycosphaerella graminicola; experiment: Mycosphaerella graminicola (Septoria tritici) (Septoria Blotch), growth inhibition in nutrient broth; assay type: cell-based; details: Zymoseptoria tritici, read-out: control of Mycosphaerella gramminicola (inhibition of growth)
Procedure: as §1
as §2, with “Conidia” for “Mycelia fragments of a newly grown liquid culture”, “fungus from cryogenic storage” for “fungus”, “format),” for “format)”, “spores” for “material”, “4-5” for “3-4”

Compound: Clc1ccc(CC2CON=C(c3c(Oc4cccc(C5CC5)c4)cnc4ccnn34)N2)c(Cl)c1 (stereo not shown) [Compound 1.1, 3-[6-(3-cyclopropylphenoxy)pyrazolo[1,5-a]pyrimidin-7-yl]-5-[(2,4-dichlorophenyl)methyl]-5,6-dihydro-4H-1,2,4-oxadiazine]
- inhibition at 20 ppm (Sclerotinia sclerotiorum): ≥ 80%
- inhibition at 20 ppm (Botryotinia fuckeliana): ≥ 80%
- control of Alternaria solani (percent disease control compared to untreated) (Alternaria solani): at least 80%
- control of Pyrenophora teres (disease control compared to untreated) (Pyrenophora teres): at least 80%
- inhibition at 20 ppm (Glomerella lagenarium): ≥ 80%

Compound: Clc1ccc(CC2CON=C(c3c(Oc4cccc(C5CC5)c4)cnc4c(Cl)cnn34)N2)c(Cl)c1 (stereo not shown) [Compound 1.2, 3-[3-chloro-6-(3-cyclopropylphenoxy)pyrazolo[1,5-a]pyrimidin-7-yl]-5-[(2,4-dichlorophenyl)methyl]-5,6-dihydro-4H-1,2,4-oxadiazine]
- inhibition at 20 ppm (Botryotinia fuckeliana): ≥ 80%

Compound: Fc1cc2ncc(Oc3cccc(C4CC4)c3)c(C3=NOCC(Cc4ccc(Cl)cc4Cl)N3)n2n1 (stereo not shown) [Compound 1.3, 3-[6-(3-cyclopropylphenoxy)-2-fluoro-pyrazolo[1,5-a]pyrimidin-7-yl]-5-[(2,4-dichlorophenyl)methyl]-5,6-dihydro-4H-1,2,4-oxadiazine]
- inhibition at 20 ppm (Botryotinia fuckeliana): ≥ 80%

Compound: Clc1ccc(CC2CON=C(c3c(Oc4cccc(C5CC5)c4)cnc4cc(Cl)nn34)N2)c(Cl)c1 (stereo not shown) [Compound 1.4, 3-[2-chloro-6-(3-cyclopropylphenoxy)pyrazolo[1,5-a]pyrimidin-7-yl]-5-[(2,4-dichlorophenyl)methyl]-5,6-dihydro-4H-1,2,4-oxadiazine]
- inhibition at 20 ppm (Botryotinia fuckeliana): ≥ 80%

Compound: Clc1ccc(CC2CON=C(c3c(Oc4cccc(C5CC5)c4)cnn4ccnc34)N2)c(Cl)c1 (stereo not shown) [Compound 1.5, 3-[7-(3-cyclopropylphenoxy)imidazo[1,2-b]pyridazin-8-yl]-5-[(2,4-dichlorophenyl)methyl]-5,6-dihydro-4H-1,2,4-oxadiazine]
- inhibition at 20 ppm (Monographella nivalis): ≥ 80%
- inhibition at 20 ppm (Sclerotinia sclerotiorum): ≥ 80%
- inhibition at 20 ppm (Botryotinia fuckeliana): ≥ 80%
- inhibition at 20 ppm (Glomerella lagenarium): ≥ 80%
- inhibition at 20 ppm [1]: ≥ 80%
